Laboratory results from patent US10765625B2, “Knottin-drug conjugates and methods of using the same” (THE BOARD OF TRUSTEES OF THE LELAND STANFORD JUNIOR …, priority 2016, dated 2020).
Positions of bridges follow the written chain, without caps; N, C: chain ends. Non-standard residues stand in square brackets, D forms with d. Residues, ends and D or L forms follow the SMILES beside them. Orn(N3) = [N-]=[N+]=NCCC[C@H](N)C(=O)O

Tests used:
[1] = system: U87MG cells; experiment: Competition binding assay with AF488-labeled EETI-2.5F (AF488-1), flow cytometry; settings: for IC50: competition with 1 nM AF488-1, 4° C., 3 hours, read-out: IC50 (nM), binding affinity
Description: Once the knottin-drug conjugates 5a-d were prepared, their binding affinity to U87MG glioblastoma cells, which are known to have elevated expression of tumor-associated integrins, was tested. […] To measure the relative binding affinities of knottins 1 and 2 and KDCs 5a-d, competition binding assays were performed using AlexaFluor 488-conjugated EETI-2.5F (AF488-1) as previously described (J. W. Kim, et al., J. Am. Chem. Soc. 2015, 137, 6-9). Cells (5×10^4 per sample) were detached with 0.05% Trypsin-EDTA, washed with IBB (25 mM Tris pH 7.4, 150 mM NaCl, 2 mM CaCl2, 1 mM MgCl2, 1 mM MnCl2, and 0.1% bovine serum albumin), and incubated with 1 nM AF488-1 and varying concentrations of competitors in 800 μL of IBB at 4° C. for 3 hours. The cells were washed twice with 800 μL of PBSA (phosphate buffered saline containing 0.1% bovine serum albumin) and the fluorescence of the surface-bound AF488-1 was determined using flow cytometry. The fluorescence was normalized to that of cells treated with AF488-1 alone to obtain the fraction bound. Half-maximal inhibitory concentration (IC50) values were determined by nonlinear regression analysis. Error bars represent the standard deviation of experiments performed in triplicate.

[2] = system: U87MG cells; experiment: Cell proliferation, CCK-8 colorimetric assay; type: cell-based; settings: U87MG cells; for Potency / growth inhibition in U87MG cells (in words): 4 d; for EC50: 4 d incubation, vs untreated control, read-out: ED50 (nM), potency
Description: (§1) U87MG, and PANC-1 cells were grown in Dulbecco's Modified Eagle Medium (DMEM) with 10% fetal bovine serum (FBS) and 1% penicillin/streptomycin. MDA-MB-468 cells were grown in DMEM and Ham's F-12 medium (DMEM/F12) with 10% FBS and 1% penicillin/streptomycin. A2780 and BxPC3 cells were grown in Roswell Park Memorial Institute medium (RPMI) 1640+L-glutamine, with 10% FBS and 1% penicillin/streptomycin. D270 cells were grown in MEM (Richter's modification, no phenol red) with 10% FBS and 0.1% Gentamicin. Unless otherwise specified, cells were incubated at 37° C., 5% CO2. Flow cytometry was performed using an EMD Millpore Guava EasyCyte 8HT flow cytometer and the resulting data were evaluated using FlowJo software provided by TreeStar, Inc. Cell proliferation was measured using the Dojindo Cell Counting Kit-8 by replacing the media in each well with 100 μL of media containing 10% WST-8. After incubation for 1 h at 37° C., absorbance, A, at 450 nm was measured with a BioTek Synergy H4 microtiter plate reader. The background signal of CCK-8 alone was subtracted from all samples. Cell proliferation was then expressed as a percentage of absorbance relative to the control of untreated cells (Equation 2). Nonlinear regression analysis was performed using GraphPad Prism.
Next, the potency of each KDC was tested in a cell-proliferation experiment. […] Cells were seeded in a 96-well plate at a density of 2,500 cells per well and grown overnight at 37° C., 5% CO2 in DMEM with 10% FBS and 1% penicillin/streptomycin. Cells were subsequently treated with 100 μL of fresh media, containing varying concentrations of drug, protein, or protein-drug conjugate and incubated for 4 d at 37° C., 5% CO2. Cell proliferation was measured according to the method described in Section 1.3. Error bars represent the standard deviation of experiments performed in triplicate. […] Given that the linker must be cleaved to release free Gemcitabine in order for the payload to become active, the low potency of 5b can be explained by the greater stability of the carbamate group as compared to the other linkers tested.

[3] = system: U87MG cells; experiment: Premature drug release study: cell proliferation (CCK-8) with hENT1 inhibitor 6 co-administered; type: cell-based; settings: for Fold Increase in ED50 in U87MG Cells: ED50 with 6 / ED50 without 6, minus 1
Description: as §1
The relative extent of premature drug-release in the cases of 5a, 5c, and 5d was next determined in order to identify the linker best-suited for delivering the drug payload intracellularly. An established technique for blocking the cellular uptake of Gemcitabine by using S (4-nitrobenzyl)-6-thioinosine (6) was employed, which is known to inhibit human equilibrative nucleoside transporters, such as hENT1. Because hENT1 is a critical regulator of the cellular internalization of Gemcitabine, it was reasoned that by inhibiting its activity with 6, the cytotoxic effect of any drug payload that was released in the extracellular environment could be diminished. It was anticipated that this would allow the distinction between KDCs that were potent due to the undesirable release of Gemcitabine outside of the cell from those that released Gemcitabine intracellularly (FIG. 6). The extent of premature drug release in the extracellular environment was studied by inhibiting activity of nucleoside transporters (such as hENT1) of U87MG cells through the use of the hENT1 inhibitor S-(4-nitrobenzyl)-6-thioinosine (6). […] In a similar fashion, it was expected that for KDCs which released a significant amount of the drug payload in the extracellular environment, an increase in the concentration of 6 should result in a concomitant increase in ED50 value.
Media used to prepare varying concentrations of drug, protein, or protein-drug conjugate also contained varying concentrations of the hENT1 inhibitor, 6. Additionally, prior to treatment, cell were incubated at 37° C., 5% CO2 with fresh media containing the varying concentrations of 6 for 2 h. Cell proliferation was measured using the Cell Counting Kit-8 by replacing the media in each well with 100 μL of media containing 10% WST-8. After incubation for 1 h at 37° C., absorbance at 450 nm was measured with a Synergy H4 microtiter plate reader. ED50 values were determined by nonlinear regression analysis. Example dose-response curves for 3 (FIG. 7) and 5d (FIG. 8) are provided. Cell proliferation was measured according to the method described in Section 1.3. Error bars represent the standard deviation of experiments performed in triplicate.
These values were normalized as Fold Increase in ED50 (defined in Equation 2) by dividing the ED50 of each drug when 6 was co-administered at concentration=C by the ED50 of that same drug when no 6 was added, then subtracting 1 (thus, a “0-fold increase” would mean no increase, while a “1-fold increase” would mean that the ED50 value had doubled). Fold Increase in ED50 for each drug at each concentration of 6 is provided in Table 5, and these values were used to generate FIG. 9.

[4] = system: U87MG cells; experiment: Integrin-blocking competition: cell proliferation (CCK-8) after pre-treatment with EETI-2.5F (1); type: cell-based; settings: 1 μM 1, 3 h pre-treatment and co-treatment
Description: as §1
One possible explanation for the apparent hENT1-independence of 5d is that its route of internalization could be integrin-mediated. The role of integrin-binding in the biological potency and hENT1-independence of 5d was determined. A competition experiment was carried out in which U87MG cells were pre-treated with unconjugated EETI-2.5F (1) in order to block integrins on the cell surface. The role of integrin-binding was studied by measuring the proliferation of U87MG cells that had been pre-treated with EETI-2.5F (1) when exposed to increasing doses of 3 and KDCs 5a, 5c, and 5d. […] Media used to prepare varying concentrations of drug, protein, or protein-drug conjugate also contained 1 μM of 1. Prior to treatment, cells were incubated for 3 h at 37° C., 5% CO2 with fresh media containing 1 μM 1. After this pre-treatment, cells were incubated with varying concentrations of 5a, 5c, or 5d for 24 h and then media was replaced with fresh media and cells were incubated for an additional 48 h. Cell proliferation was measured using the Cell Counting Kit-8 by replacing the media in each well with 100 μL of media containing 10% WST-8. After incubation for 1 h at 37° C., absorbance at 450 nm was measured with a Synergy H4 microtiter plate reader. Cell proliferation was measured according to the method described in Section 1.3. Error bars represent the standard deviation of experiments performed in triplicate.

| Compound | IC50 [1] | Potency / growth inhibition in U87MG cells (in words) [2] | EC50 [2] | Effect of hENT1 inhibitor 6 on potency (ED50) (in words) ([3]; U87MG cells, increasing concentrations of 6 up to 10 μM) | Fold Increase in ED50 in U87MG Cells ([3]; [6] = 0 nM) | Fold Increase in ED50 in U87MG Cells ([3]; [6] = 1 nM) | Fold Increase in ED50 in U87MG Cells ([3]; [6] = 10 nM) | Fold Increase in ED50 in U87MG Cells ([3]; [6] = 100 nM) | Fold Increase in ED50 in U87MG Cells ([3]; [6] = 1000 nM) | Fold Increase in ED50 in U87MG Cells ([3]; [6] = 10000 nM) | Effect of integrin blocking by pre-treatment with 1 on potency (in words) [4] | Binding affinity to U87MG cells (in words) [1] |
| --- | --- | --- | --- | --- | --- | --- | --- | --- | --- | --- | --- | --- |
| CC(C)C[C@@H]1NC(=O)[C@@H]2CSSC[C@@H](C(=O)NCC(=O)O)NC(=O)[C@H](Cc3ccccc3)NC(=O)CNC(=O)[C@H](CC(N)=O)NC(=O)[C@@H]3CCCN3C(=O)CNC(=O)[C@@H]3CSSC[C@H](NC(=O)[C@H]([C@@H](C)O)NC(=O)[C@H](CC(C)C)NC(=O)[C@@H]4CCCN4C(=O)[C@@H]4CCCN4C(=O)[C@H](CC(N)=O)NC(=O)[C@H](CC(=O)O)NC(=O)CNC(=O)[C@H](CCCNC(=N)N)NC(=O)[C@@H]4CCCN4C(=O)[C@H](CCCNC(=N)N)NC(=O)[C@@H]4CCCN4C(=O)[C@@H](NC(=O)CN)CSSC[C@H](NC(=O)CNC(=O)[C@H](C)NC1=O)C(=O)N[C@@H](C(C)C)C(=O)N3)C(=O)N[C@@H](CCCn1cc(CCC(=O)OC[C@H]3O[C@@H](n4ccc(N)nc4=O)C(F)(F)[C@@H]3O)nn1)C(=O)N[C@@H](CCC(N)=O)C(=O)N[C@@H](CC(=O)O)C(=O)N[C@@H](CO)C(=O)N[C@@H](CC(=O)O)C(=O)N2 [5a] | 5.2 ± 3.6 nM | low-nanomolar ED50 values | 8.5 ± 3.3 nM | increased significantly | 0 | 1.1 ± 0.5 | 3.2 ± 0.3 | 14.5 ± 0.5 | 17.9 ± 0.0 | 134.7 ± 0.4 | did not diminish the potency | – |
| CC(C)C[C@@H]1NC(=O)[C@@H]2CSSC[C@@H](C(=O)NCC(=O)O)NC(=O)[C@H](Cc3ccccc3)NC(=O)CNC(=O)[C@H](CC(N)=O)NC(=O)[C@@H]3CCCN3C(=O)CNC(=O)[C@@H]3CSSC[C@H](NC(=O)[C@H]([C@@H](C)O)NC(=O)[C@H](CC(C)C)NC(=O)[C@@H]4CCCN4C(=O)[C@@H]4CCCN4C(=O)[C@H](CC(N)=O)NC(=O)[C@H](CC(=O)O)NC(=O)CNC(=O)[C@H](CCCNC(=N)N)NC(=O)[C@@H]4CCCN4C(=O)[C@H](CCCNC(=N)N)NC(=O)[C@@H]4CCCN4C(=O)[C@@H](NC(=O)CN)CSSC[C@H](NC(=O)CNC(=O)[C@H](C)NC1=O)C(=O)N[C@@H](C(C)C)C(=O)N3)C(=O)N[C@@H](CCCn1cc(CCCNC(=O)OC[C@H]3O[C@@H](n4ccc(N)nc4=O)C(F)(F)[C@@H]3O)nn1)C(=O)N[C@@H](CCC(N)=O)C(=O)N[C@@H](CC(=O)O)C(=O)N[C@@H](CO)C(=O)N[C@@H](CC(=O)O)C(=O)N2 [5b] | 3.3 ± 0.2 nM | lacked significant potency | > 1000 nM | – | – | – | – | – | – | – | – | – |
| CC(C)C[C@@H]1NC(=O)[C@@H]2CSSC[C@@H](C(=O)NCC(=O)O)NC(=O)[C@H](Cc3ccccc3)NC(=O)CNC(=O)[C@H](CC(N)=O)NC(=O)[C@@H]3CCCN3C(=O)CNC(=O)[C@@H]3CSSC[C@H](NC(=O)[C@H]([C@@H](C)O)NC(=O)[C@H](CC(C)C)NC(=O)[C@@H]4CCCN4C(=O)[C@@H]4CCCN4C(=O)[C@H](CC(N)=O)NC(=O)[C@H](CC(=O)O)NC(=O)CNC(=O)[C@H](CCCNC(=N)N)NC(=O)[C@@H]4CCCN4C(=O)[C@H](CCCNC(=N)N)NC(=O)[C@@H]4CCCN4C(=O)[C@@H](NC(=O)CN)CSSC[C@H](NC(=O)CNC(=O)[C@H](C)NC1=O)C(=O)N[C@@H](C(C)C)C(=O)N3)C(=O)N[C@@H](CCCN=[N+]=[N-])C(=O)N[C@@H](CCC(N)=O)C(=O)N[C@@H](CC(=O)O)C(=O)N[C@@H](CO)C(=O)N[C@@H](CC(=O)O)C(=O)N2 [compound 2] (H-GCPRPRGDNPPLTC[Orn(N3)]QDSDCLAGCVCGPNGFCG-OH; disulfide 2-24, 14-26, 20-32; N-terminus and C-terminus assumed) | 1.1 ± 1.8 nM | did not show significant growth-inhibition activity | > 1000 nM | – | – | – | – | – | – | – | – | low-nanomolar binding affinity |
